Patent publication US9365584B2, “Thieno [2,3-B] pyridinedione activators of AMPK and therapeutic uses thereof” (Poxel, priority 2009, dated 2016)

Tested on: AMPK
Assay: AMPK enzyme activity assay (Delfia technology, AMARA peptide substrate)
Format: biochemical
Details: compound at 30 μM vs AMP at 200 μM
Procedure, shortened: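 Value is the ratio of compound (30 μM) to AMP (200 μM) response, each as % of basal control. Phosphorylation of the AMARA peptide after AMPK addition was read by Delfia with an anti-phosphoserine antibody.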

Row | SMILES | Activity: Ratio between the % of control (basal activity) of compound of formula (1) at 30 μM and the % of control (basal activity) of AMP (natural substrate) at 200 μM
1 | Cc1cccc(-c2c(Cl)sc3c2C(=O)C(C)(c2ccccc2F)C(=O)N3)c1 (centres unmarked) [No 156, 2-chloro-5-(2-fluorophenyl)-5-methyl-3-(m-tolyl)-7H-thieno[2,3-b]pyridine-4,6-dione] | A (0%<A<50%)
2 | O=C1Nc2sc(Cl)c(-c3cccc(F)c3)c2C(=O)C1(F)c1ccccc1 (centres unmarked) [No 157, 2-chloro-5-fluoro-3-(3-fluorophenyl)-5-phenyl-7H-thieno[2,3-b]pyridine-4,6-dione] | C (C≧75%)
3 | Cc1cccc(-c2c(Cl)sc3c2C(=O)C(C)(c2cccc(F)c2)C(=O)N3)c1 (centres unmarked) [No 158, 2-chloro-5-(3-fluorophenyl)-5-methyl-3-(m-tolyl)-7H-thieno[2,3-b]pyridine-4,6-dione] | A (0%<A<50%)
4 | COc1cc(-c2csc3c2C(=O)C(F)(c2ccccc2)C(=O)N3)ccc1Br (centres unmarked) [No 159, 3-(4-bromo-3-methoxy-phenyl)-5-fluoro-5-phenyl-7H-thieno[2,3-b]pyridine-4,6-dione] | C (C≧75%)
5 | COc1cc(-c2c(F)sc3c2C(=O)C(F)(c2ccccc2)C(=O)N3)ccc1Br (centres unmarked) [No 160, 3-(4-bromo-3-methoxy-phenyl)-2,5-difluoro-5-phenyl-7H-thieno[2,3-b]pyridine-4,6-dione] | B (50%≦B<75%)
6 | O=C1Nc2scc(-c3cccc(Br)c3)c2C(=O)C1(F)c1ccccc1 (centres unmarked) [No 163, 3-(3-bromophenyl)-5-fluoro-5-phenyl-7H-thieno[2,3-b]pyridine-4,6-dione] | B (50%≦B<75%)
7 | O=C1Nc2sc(F)c(-c3cccc(Br)c3)c2C(=O)C1(F)c1ccccc1 (centres unmarked) [No 164, 3-(3-bromophenyl)-2,5-difluoro-5-phenyl-7H-thieno[2,3-b]pyridine-4,6-dione] | C (C≧75%)
8 | COc1ccc(C2(F)C(=O)Nc3sc(F)c(-c4ccc(F)cc4)c3C2=O)cc1 (centres unmarked) [No 165, 2,5-difluoro-3-(4-fluorophenyl)-5-(4-methoxyphenyl)-7H-thieno[2,3-b]pyridine-4,6-dione] | C (C≧75%)
9 | O=C1Nc2scc(-c3ccc(Br)cc3)c2C(=O)C1(F)c1cccnc1 (centres unmarked) [No 166, 3-(4-bromophenyl)-5-fluoro-5-(3-pyridyl)-7H-thieno[2,3-b]pyridine-4,6-dione] | A (0%<A<50%)
10 | COc1ccc(C2(F)C(=O)Nc3scc(-c4ccccc4)c3C2=O)cc1 (centres unmarked) [No 167, 5-fluoro-5-(4-methoxyphenyl)-3-phenyl-7H-thieno[2,3-b]pyridine-4,6-dione] | A (0%<A<50%)
11 | COc1ccc(C2(F)C(=O)Nc3sc(F)c(-c4ccccc4)c3C2=O)cc1 (centres unmarked) [No 168, 2,5-difluoro-5-(4-methoxyphenyl)-3-phenyl-7H-thieno[2,3-b]pyridine-4,6-dione] | A (0%<A<50%)
12 | COc1ccc(C2(F)C(=O)Nc3sc(Cl)c(-c4ccc(F)cc4O)c3C2=O)cc1 (centres unmarked) [No 169, 2-chloro-5-fluoro-3-(4-fluoro-2-hydroxy-phenyl)-5-(4-methoxyphenyl)-7H-thieno[2,3-b]pyridine-4,6-dione] | C (C≧75%)
13 | Cc1cccc(-c2c(Cl)sc3c2C(=O)C(C)(c2ccc(F)cc2)C(=O)N3)c1 (centres unmarked) [No 170, 2-chloro-5-(4-fluorophenyl)-5-methyl-3-(m-tolyl)-7H-thieno[2,3-b]pyridine-4,6-dione] | A (0%<A<50%)
14 | Cc1cccc(-c2c(Cl)sc3c2C(=O)C(C)(c2cccc(C)c2)C(=O)N3)c1 (centres unmarked) [No 171, 2-chloro-5-methyl-3,5-bis(m-tolyl)-7H-thieno[2,3-b]pyridine-4,6-dione] | A (0%<A<50%)
15 | O=C1Nc2scc(-c3ccc(Cl)cc3)c2C(=O)C1(F)c1ccccc1 (centres unmarked) [No 172, 3-(4-chlorophenyl)-5-fluoro-5-phenyl-7H-thieno[2,3-b]pyridine-4,6-dione] | B (50%≦B<75%)
16 | O=C1Nc2sc(F)c(-c3ccc(Cl)cc3)c2C(=O)C1(F)c1ccccc1 (centres unmarked) [No 173, 3-(4-chlorophenyl)-2,5-difluoro-5-phenyl-7H-thieno[2,3-b]pyridine-4,6-dione] | B (50%≦B<75%)

Row | SMILES | Activity: Ratio between the % of control (basal activity) of compound of formula (1) at 30 μM and the % of control (basal activity) of AMP (natural substrate) at 200 μM
17 | O=C1Nc2scc(-c3ccc(F)cc3OCc3ccccc3)c2C(=O)C1(F)c1ccccc1 (centres unmarked) [No 174, 3-(2-benzyloxy-4-fluoro-phenyl)-5-fluoro-5-phenyl-7H-thieno[2,3-b]pyridine-4,6-dione] | A (0%<A<50%)
18 | O=C1Nc2sc(F)c(-c3ccc(F)cc3OCc3ccccc3)c2C(=O)C1(F)c1ccccc1 (centres unmarked) [No 175, 3-(2-benzyloxy-4-fluoro-phenyl)-2,5-difluoro-5-phenyl-7H-thieno[2,3-b]pyridine-4,6-dione] | A (0%<A<50%)
19 | Cc1cccc(C2(Cl)C(=O)Nc3sc(Cl)c(-c4ccc(F)cc4O)c3C2=O)c1 (centres unmarked) [No 176, 2,5-dichloro-3-(4-fluoro-2-hydroxy-phenyl)-5-(m-tolyl)-7H-thieno[2,3-b]pyridine-4,6-dione] | C (C≧75%)
20 | O=C1Nc2scc(-c3ccccc3F)c2C(=O)C1(F)c1ccccc1 (centres unmarked) [No 177, 5-fluoro-3-(2-fluorophenyl)-5-phenyl-7H-thieno[2,3-b]pyridine-4,6-dione] | A (0%<A<50%)
21 | O=C1Nc2sc(F)c(-c3ccccc3F)c2C(=O)C1(F)c1ccccc1 (centres unmarked) [No 178, 2,5-difluoro-3-(2-fluorophenyl)-5-phenyl-7H-thieno[2,3-b]pyridine-4,6-dione] | B (50%≦B<75%)
22 | O=C1Nc2scc(-c3ccc(F)cc3F)c2C(=O)C1(F)c1ccccc1 (centres unmarked) [No 179, 3-(2,4-difluorophenyl)-5-fluoro-5-phenyl-7H-thieno[2,3-b]pyridine-4,6-dione] | A (0%<A<50%)
23 | COc1ccccc1-c1csc2c1C(=O)C(F)(c1ccccc1)C(=O)N2 (centres unmarked) [No 180, 5-fluoro-3-(2-methoxyphenyl)-5-phenyl-7H-thieno[2,3-b]pyridine-4,6-dione] | A (0%<A<50%)
24 | COc1ccccc1-c1c(F)sc2c1C(=O)C(F)(c1ccccc1)C(=O)N2 (centres unmarked) [No 181, 2,5-difluoro-3-(2-methoxyphenyl)-5-phenyl-7H-thieno[2,3-b]pyridine-4,6-dione] | A (0%<A<50%)
25 | COc1cccc(C2(F)C(=O)Nc3scc(-c4ccccc4)c3C2=O)c1 (centres unmarked) [No 182, 5-fluoro-5-(3-methoxyphenyl)-3-phenyl-7H-thieno[2,3-b]pyridine-4,6-dione] | C (C≧75%)
26 | COc1cccc(C2(F)C(=O)Nc3sc(F)c(-c4ccccc4)c3C2=O)c1 (centres unmarked) [No 183, 2,5-difluoro-5-(3-methoxyphenyl)-3-phenyl-7H-thieno[2,3-b]pyridine-4,6-dione] | B (50%≦B<75%)
27 | Cc1cccc(C2(F)C(=O)Nc3sc(Cl)c(-c4ccc(F)cc4O)c3C2=O)c1 (centres unmarked) [No 184, 2-chloro-5-fluoro-3-(4-fluoro-2-hydroxy-phenyl)-5-(m-tolyl)-7H-thieno[2,3-b]pyridine-4,6-dione] | C (C≧75%)
28 | Cc1c(F)ccc(-c2c(Cl)sc3c2C(=O)C(F)(c2ccccc2)C(=O)N3)c1O (centres unmarked) [No 185, 2-chloro-5-fluoro-3-(4-fluoro-2-hydroxy-3-methyl-phenyl)-5-phenyl-7H-thieno[2,3-b]pyridine-4,6-dione] | C (C≧75%)
29 | Cc1cccc(C2(F)C(=O)Nc3sc(Cl)c(-c4ccc(C)c(C)c4)c3C2=O)c1 (centres unmarked) [No 186, 2-chloro-3-(3,4-dimethylphenyl)-5-fluoro-5-(m-tolyl)-7H-thieno[2,3-b]pyridine-4,6-dione] | C (C≧75%)
30 | Cc1ccc(-c2c(Cl)sc3c2C(=O)C(F)(c2cccnc2)C(=O)N3)cc1C (centres unmarked) [No 187, 2-chloro-3-(3,4-dimethylphenyl)-5-fluoro-5-(3-pyridyl)-7H-thieno[2,3-b]pyridine-4,6-dione] | C (C≧75%)
31 | O=C1Nc2scc(-c3ccc(Br)cc3)c2C(=O)C1(F)c1ccccn1 (centres unmarked) [No 188, 3-(4-bromophenyl)-5-fluoro-5-(2-pyridyl)-7H-thieno[2,3-b]pyridine-4,6-dione] | A (0%<A<50%)
32 | O=C1Nc2scc(-c3ccc(F)cc3)c2C(=O)C1(F)c1ccccc1 (centres unmarked) [No 189, 5-fluoro-3-(4-fluorophenyl)-5-phenyl-7H-thieno[2,3-b]pyridine-4,6-dione] | A (0%<A<50%)
